From patent US9499493B2, “2,4-pyrimidinediamine compounds and their uses” (Rigel Pharmaceuticals, Inc., priority 2002, dated 2016)
Counter-ions that a name gives are not always drawn.

Columns and labels:
[1] = system: cultured human mast cells (CHMC); assay: CHMC low cell density ionomycin activation: tryptase assay; type: cell-based
[2] = system: cultured human mast cells (CHMC); assay: CHMC low cell density IgE activation: tryptase assay; type: cell-based; details: anti-IgE
Procedure: Pellet CHMC cells (980 rpm, 10 min) and resuspend in pre-warmed MT. Add 65 ul of cells to each 96-well plate. Depending on the degranulation activity for each particular CHMC donor, load 1000-1500 cells/well. Mix four times followed by a 1 hr incubation at 37° C. […] Stimulate cells by adding 25 ul of 6× anti-IgE solution to the appropriate plates. Add 25 ul MT to un-stimulated control wells. Mix twice following addition of the anti-IgE. Incubate at 37° C. for 30 minutes. […] Spin plates at 1000 rpm for 10 min to pellet cells. Transfer 25 ul of supernatant to a 96-well black bottom plate and add 100 ul of freshly diluted tryptase substrate solution to each well. Incubate plates at room temperature for 30 min.

Compound | IC50 [1] [µM] | IC50 [2] [nM]
COC(=O)C(C)Oc1ccc(Nc2ncc(F)c(Nc3ccc(OC(C)C(=O)OC)cc3)n2)cc1 (racemic) [R926254, (±)-N2,N4-Bis[4-methoxycarbonyl(α-methyl)methyleneoxyphenyl]-5-fluoro-2,4-pyrimidinediamine] | 4 | –
Cc1cc(Nc2nc(Cl)ncc2F)ccc1F [Compound R926921] | > 10 | –
Cc1ccc(Nc2nc(Cl)ncc2F)cc1CNC(=O)OC(C)(C)C [Compound R926924] | > 10 | –
CNC(=O)COc1cccc(Nc2ncc(F)c(Nc3ccc4c(c3)N(C)CCO4)n2)c1 [R909259, 5-Fluoro-N2-[3-(N-methylaminocarbonylmethyleneoxy)phenyl]-N4-(N-methyl-1,4-benzoxazin-6-yl)pyrimidinediamine] | > 10 | –
CNC(=O)COc1cccc(Nc2ncc(F)c(Nc3ccc4c(c3)NCCO4)n2)c1 [R920395, N4-(1,4-Benzoxazin-6-yl)-5-fluoro-N2-[3-(N-methylamino)carbonylmethyleneoxyphenyl]-2,4-pyrimidinediamine Hydrogen Chloride Salt] | > 10 | –
Oc1cccc(Nc2ncc(F)c(Nc3ccc4c(c3)OCCO4)n2)c1 [R925796, N4-(3,4-Ethylenedioxyphenyl)-5-fluoro-N2-(3-hydroxyphenyl)-2,4-pyrimidinediamine] | > 10 | –
Oc1cccc(Nc2ncc(F)c(Nc3cccc(O)c3)n2)c1 [R926461, N2,N4-Bis(3-sodiumphenoxy)-5-fluoro-2,4-pyrimidinediamine] | > 10 | –
O=C(c1cc2cc(Nc3ncc(F)c(Nc4ccc5c(c4)OCCO5)n3)ccc2o1)N1CCOCC1 [R926492, N4-(3,4-Ethylenedioxyphenyl)-5-fluoro-N2-[2-(N-morpholino)carbonylbenzofuran-5-yl]-2,4-pyrimidinediamine] | > 10 | –
O=C(c1cc2cc(Nc3ncc(F)c(Nc4ccc5c(c4)OCCO5)n3)ccc2o1)N1CCNCC1 [R926499, N4-(3,4-Ethylenedioxyphenyl)-5-fluoro-N2-[2-(N-piperazino)carbonylbenzofuran-5-yl]-2,4-pyrimidinediamine] | > 10 | –
O=C(c1cc2cc(Nc3ncc(F)c(Nc4cccc(O)c4)n3)ccc2o1)N1CCNCC1 [R926500, 5-Fluoro-N4-(3-hydroxyphenyl)-N2-[2-(N-piperazino)carbonylbenzofuran-5-yl]-2,4-pyrimidinediamine] | > 10 | –
O=C(COc1cccc(Nc2ncc(F)c(Nc3ccc4c(c3)OCCO4)n2)c1)N1CCNCC1 [R926504, N4-(3,4-Ethylenedioxyphenyl)-5-fluoro-N2-[3-(N-piperazino)carbonylmethyleneoxyphenyl]-2,4-pyrimidinediamine Hydrogen Chloride Salt] | > 10 | –
O=C(c1cc2cc(Nc3ncc(F)c(Nc4ccc5c(c4)OCCO5)n3)ccc2o1)N1CCCNCC1 [R926767, N4-(3,4-Ethylenedioxyphenyl)-5-fluoro-N2-[2-(N-homopiperazino)carbonylbenzofuran-5-yl]-2,4-pyrimidinediamine] | > 10 | –
O=C(c1cc2cc(Nc3ncc(F)c(Nc4ccc5c(c4)OCCO5)n3)ccc2o1)N1CCCNCC1 [R926768, N4-(3,4-Ethylenedioxyphenyl)-5-fluoro-N2-[2-(N-homopiperazino)carbonylbenzofuran-5-yl]-2,4-pyrimidinediamine Hydrogen Chloride Salt] | > 10 | –
CNC(=O)COc1cccc(Nc2ncc(F)c(Nc3ccc4c(c3)OCCO4)n2)c1 [R926816, N4-(3,4-Ethylenedioxyphenyl)-5-fluoro-N2-[3-(N-methylamino)carbonylmethyleneoxyphenyl]-2,4-pyrimidinediamine Hydrogen Chloride Salt] | > 10 | –
N2-(N-Ethylcarbonylmethyleneoxy-1,4-benzoxazin-6-yl)-5-fluoro-N2-[3-hydroxyphenyl)phenyl]pyrimidinediamine [R908734] | – | 1380
N4-(1,4-Benzoxazin-7-yl)-5-fluoro-N2-(3-hydroxyphenyl)-pyrimidinediamine [R908711] | – | 1760
N4-[3-(2-(N4-(3-aminomethylenephenyl)-5-fluoro-4-pyrimidineamine)-N-methylaminomethylene)-phenyl]-5-fluoro-N2-[3-(methylaminocarbonylmethyleneoxy)phenyl]-2,4-pyrimidineamine [R940311] | – | 1950

Results, then the compound that gave them:

IC50 [1] [µM] | IC50 [2] [nM] | Compound
> 10 | – | CNC(=O)C1Cc2cc(Nc3ncc(F)c(Nc4cccc(OC(F)(F)F)c4)n3)ccc2O1 (racemic) [R927040, (±)-N2-[2,3-Dihydro-(N-methylamino)carbonylbenzofuran-5-yl]-5-fluoro-N4-(3-trifluoromethoxyphenyl)-2,4-pyrimidinediamine]
10 | – | CCOC(=O)COc1ccc(Nc2nc(Nc3ccc(OCC(=O)OCC)cc3)c(NC(=O)NC(=O)CCl)c(C(=O)OCC)n2)cc1 [R926589, N2,N4-Bis(4-ethoxycarbonylmethyleneoxyphenyl)-6-ethoxycarbonyl-5-(chloroacetylaminocarbonylamino)-2,4-pyrimidinediamine]
> 10 | – | CN(CCO)C(=O)c1cc2cc(Nc3ncc(F)c(Nc4cccc(O)c4)n3)ccc2o1 [R926725, 5-Fluoro-N4-(3-hydroxyphenyl)-N2-[2-(N-methyl-N-2-hydroxyethyl)carbonylbenzofuran-5-yl)-2,4-pyrimidinediamine]
> 10 | – | CNC(=O)COc1cccc(Nc2ncc(F)c(Nc3ccc(C)c(O)c3)n2)c1 [R926753, 5-Fluoro-N4-(3-hydroxy-4-methylphenyl)-N2-[3-[(N-methylamino)carbonylmethyleneoxy]phenyl]-2,4-pyrimidinediamine]
> 10 | – | CNC(=O)COc1cc(Nc2ncc(F)c(Nc3cccc(O)c3)n2)ccc1C [R926757, 5-Fluoro-N4-(3-hydroxyphenyl)-N2-[4-methyl-3-[(N-methylamino)carbonylmethyleneoxy]phenyl]-2,4-pyrimidinediamine]
10 | – | CC(C)NC(=O)COc1cccc(Nc2ncc(F)c(Nc3ccc4c(c3)OCCO4)n2)c1 [R926830, N4-(3,4-Ethylenedioxyphenyl)-5-fluoro-N2-[3-(N-isopropylamino)carbonylmethyleneoxyphenyl]-2,4-pyrimidinediamine]
10 | – | O=C(COc1cccc(Nc2ncc(F)c(Nc3ccc4c(c3)OCCO4)n2)c1)NC1CC1 [R926848, N2-[3-(N-Cyclopropylamino)carbonylmethyleneoxyphenyl]-N4-(3,4-ethylenedioxyphenyl)-5-fluoro-2,4-pyrimidinediamine]
– | 115 | COC(=O)c1cc2cc(Nc3ncc(F)c(Nc4ccc5c(c4)NC(=O)C(C)(C)O5)n3)ccc2o1 [R940354, N4-[(2,2-Dimethyl-4H-benzo[1,4]oxazin-3-one)-6-yl]-5-fluoro-N2-(2-methoxycarbonylbenzofur-5-yl)-2,4-pyrimidinediamine]
– | 1640 | CNC(=O)COc1cccc(Nc2ncc(F)c(Nc3cnc4c(c3)OCCN4)n2)c1 [R945263, 5-Fluoro-N2-(3-methylaminocarbonylmethyleneoxyphenyl)-N4-[2H-pyrido[3,2-b]-1,4-oxazin-7-yl]-2,4-pyrimidinediamine]
– | > 10000 | O=[N+]([O-])c1ccc(NCCO)c(Nc2ccnc(Nc3cc([N+](=O)[O-])ccc3NCCO)n2)c1 [R950156, N2,N4-Bis(2-hydroxyethyleneamino-5-nitrophenyl)-2,4-pyrimidinediamine]
– | > 10000 | CC(=O)Nc1cccc(N(C(C)=O)c2ncc(F)c(N(C(C)=O)c3cccc(NC(C)=O)c3)n2)c1 [R950244, N2,N4-Bis(3-N-acetylaminophenyl)-5-fluoro-N2,N4-pyrimidinediacetylamine]
– | > 10000 | CC(=O)Nc1cccc(N(C(C)=O)c2ncc(F)c(N(C(C)=O)c3cccc(N(C(C)=O)C(C)=O)c3)n2)c1 [R950245, N4-(3-N,N-Diacetylaminophenyl)-N2-(3-N-acetylaminopheny)-5-fluoro-N2,N4-pyrimidinediacetylamine]
– | > 10000 | CC(=O)Nc1cccc(N(C(C)=O)c2nc(N(C(C)=O)c3cccc(N(C(C)=O)C(C)=O)c3)ncc2F)c1 [R950246, N4-(3-N-Acetylaminophenyl)-N2-(3-N,N-diacetylaminopheny)-5-fluoro-N2,N4-pyrimidinediacetylamine]
– | > 10000 | CC(=O)N(C(C)=O)c1cccc(N(C(C)=O)c2ncc(F)c(N(C(C)=O)c3cccc(N(C(C)=O)C(C)=O)c3)n2)c1 [R950247, N2,N4-Bis(3-N,N-diacetylaminophenyl)-5-fluoro-N2,N4-pyrimidinediacetylamine]
– | 1960 | CNC(=O)COc1cccc(Nc2ncc(F)c(Nc3ccc4c(c3)C(=O)CCO4)n2)c1 [R950345, N4-(2,3-Dihydro-4-benzypyranon-6-yl)-5-fluoro-N2-[3-(N-methylamino)carbonylmethyleneoxyphenyl]-2,4-pyrimidinediamine]
– | 66 | CNC(=O)COc1cccc(Nc2ncc(F)c(Nc3ccc4c(c3)C(=NO)CCO4)n2)c1 [R950348, N4-(2,3-Dihydro-4-oxime-benzypyran-6-yl)-5-fluoro-N2-[3-(N-methylamino)carbonylmethyleneoxyphenyl]-2,4-pyrimidinediamine]
– | 973 | CNC(=O)COc1cccc(Nc2ncc(F)c(Nc3ccc(OC)c(CO)c3)n2)c1 [R950386, N4-(3-Hydroxymethylen-4-methoxyphenyl)-5-fluoro-N2-[3-(N-methylamino)carbonylmethyleneoxyphenyl]-2,4-pyrimidinediamine]
– | 2520 | CCOc1ccc(Nc2nc(Nc3cccc(OCC(=O)NC)c3)ncc2F)cc1N [R950388, N4-(3-Amino-4-ethoxyphenyl)-5-fluoro-N2-[3-(N-methylamino)carbonylmethyleneoxyphenyl]-2,4-pyrimidinediamine]
